# According to ChEMBL document CHEMBL1201862, “PubChem BioAssay data set” (2004):
# Active and inactive are the calls of the source.
# Columns and labels:
# [1] = biological target: T1, Rac GTPase-activating protein 1 (Homo sapiens, UniProt Q9H0H5); assay: MgcRacGAP GTPase-activating activity inhibitors, confirmation, biochemical, ADP Hunter fluorescence, primary and confirmatory (AID 624330); format: functional
# T1 sequence (Q9H0H5 whole entry): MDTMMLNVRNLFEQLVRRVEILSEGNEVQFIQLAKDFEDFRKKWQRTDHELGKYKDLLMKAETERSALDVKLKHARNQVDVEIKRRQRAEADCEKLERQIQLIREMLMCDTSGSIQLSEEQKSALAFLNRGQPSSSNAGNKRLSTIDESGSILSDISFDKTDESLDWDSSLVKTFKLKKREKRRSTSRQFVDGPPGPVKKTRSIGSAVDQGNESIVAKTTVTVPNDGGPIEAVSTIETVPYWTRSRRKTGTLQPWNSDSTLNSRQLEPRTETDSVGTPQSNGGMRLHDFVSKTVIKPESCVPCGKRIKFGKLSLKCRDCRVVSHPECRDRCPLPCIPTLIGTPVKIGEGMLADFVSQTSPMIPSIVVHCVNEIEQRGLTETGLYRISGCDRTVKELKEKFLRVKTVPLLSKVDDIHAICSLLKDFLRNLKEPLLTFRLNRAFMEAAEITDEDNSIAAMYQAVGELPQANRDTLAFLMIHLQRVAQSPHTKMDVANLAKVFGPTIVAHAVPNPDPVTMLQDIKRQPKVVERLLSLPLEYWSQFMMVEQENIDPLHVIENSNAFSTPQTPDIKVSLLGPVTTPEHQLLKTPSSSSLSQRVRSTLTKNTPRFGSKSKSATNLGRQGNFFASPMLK
# Cytochrome P450 1A2 = biological target: T2, Cytochrome P450 1A2 (Homo sapiens, UniProt P05177);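 note: PubChem cytochrome P450 panel assay, CYP1A2 panel member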
# T2 sequence (P05177 whole entry): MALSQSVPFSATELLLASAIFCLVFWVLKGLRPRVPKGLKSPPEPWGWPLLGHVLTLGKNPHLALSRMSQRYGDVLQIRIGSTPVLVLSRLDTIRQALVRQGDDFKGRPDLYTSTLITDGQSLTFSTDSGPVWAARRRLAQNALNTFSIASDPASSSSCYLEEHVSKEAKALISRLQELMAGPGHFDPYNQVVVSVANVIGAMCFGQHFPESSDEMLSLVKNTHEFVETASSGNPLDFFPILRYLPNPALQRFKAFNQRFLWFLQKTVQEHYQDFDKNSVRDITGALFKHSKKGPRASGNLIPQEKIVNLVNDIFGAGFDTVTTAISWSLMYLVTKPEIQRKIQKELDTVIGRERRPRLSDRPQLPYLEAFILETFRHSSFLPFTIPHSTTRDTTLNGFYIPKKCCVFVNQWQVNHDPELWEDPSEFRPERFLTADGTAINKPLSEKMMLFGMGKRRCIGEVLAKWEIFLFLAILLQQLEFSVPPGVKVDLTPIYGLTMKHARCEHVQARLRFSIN
# Cytochrome P450 3A4 = Cytochrome P450 3A4 (Homo sapiens, UniProt P08684);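 note: CYP3A4 tested as one member of a cytochrome P450 panel screen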
# Sequence of Cytochrome P450 3A4 (P08684 whole entry): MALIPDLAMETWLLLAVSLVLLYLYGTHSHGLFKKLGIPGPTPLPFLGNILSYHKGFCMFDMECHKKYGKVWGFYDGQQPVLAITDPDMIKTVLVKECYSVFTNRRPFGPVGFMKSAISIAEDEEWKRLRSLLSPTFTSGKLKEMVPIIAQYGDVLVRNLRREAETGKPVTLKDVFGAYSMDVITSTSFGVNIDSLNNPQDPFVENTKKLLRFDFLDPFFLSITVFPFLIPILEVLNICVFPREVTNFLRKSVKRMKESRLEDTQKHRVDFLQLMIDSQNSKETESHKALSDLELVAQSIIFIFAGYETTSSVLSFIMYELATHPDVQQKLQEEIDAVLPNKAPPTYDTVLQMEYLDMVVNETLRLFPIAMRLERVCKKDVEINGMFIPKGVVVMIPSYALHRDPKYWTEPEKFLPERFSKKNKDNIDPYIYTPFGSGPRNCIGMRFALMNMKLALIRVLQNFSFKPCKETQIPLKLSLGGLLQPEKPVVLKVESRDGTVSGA
# Cytochrome P450 2C19 = Cytochrome P450 2C19 (Homo sapiens, UniProt P33261); assay: Cytochrome panel assay with activity outcomes. Panel member name: p450-cyp2c19 Compounds with AC50 equal or less than 10 uM are considered active; format: functional
# Sequence of Cytochrome P450 2C19 (P33261 whole entry): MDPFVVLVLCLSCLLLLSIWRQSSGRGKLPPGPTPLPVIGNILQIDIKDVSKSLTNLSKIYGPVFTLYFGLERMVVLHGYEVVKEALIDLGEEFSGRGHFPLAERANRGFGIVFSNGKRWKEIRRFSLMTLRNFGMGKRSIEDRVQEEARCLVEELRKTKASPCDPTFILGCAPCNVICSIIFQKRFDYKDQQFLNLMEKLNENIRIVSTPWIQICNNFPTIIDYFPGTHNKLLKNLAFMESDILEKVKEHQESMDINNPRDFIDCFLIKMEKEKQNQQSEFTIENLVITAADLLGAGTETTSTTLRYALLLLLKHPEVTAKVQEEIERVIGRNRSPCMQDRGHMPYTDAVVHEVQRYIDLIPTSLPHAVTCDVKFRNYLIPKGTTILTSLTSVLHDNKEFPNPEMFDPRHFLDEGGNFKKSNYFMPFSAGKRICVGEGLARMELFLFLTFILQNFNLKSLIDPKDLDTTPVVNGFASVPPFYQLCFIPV
# [2] = cytotoxicity toward NIH3T3 fibroblasts, dose response, counter-screen, cell-based, ATP luminescence, mouse fibroblasts (AID 2010); format: functional;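 note: cells exposed to compound for about 90 hours before reading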
# [3] = inhibitors of intracellular T. cruzi replication, confirmation, NIH3T3 host cells, beta-gal luminescence (AID 2044); format: functional, cell-based;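 note: intracellular parasites grown in NIH/3T3 mouse fibroblasts as host cells; luminescent beta-galactosidase reporter signal from transgenic T. cruzi replicating inside host cells; inhibitors lower the luminescence signal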
smiles,measurement,setting,value
Brc1cccc(CNCCc2ccc3c(c2)OCO3)c1,IC50,[1],179 µM (active)
N#C/C(=C\c1cccnc1)C(=O)Nc1cccc2ccccc12,IC50,[1],157 µM (active)
CC1CCC(NC(=O)CC(C)(C)Cc2nc(O)c3ccccc3n2)CC1 (stereo not given),AC50,Cytochrome P450 1A2,22.4 µM (inconclusive)
CCN1CCN(C(C)C(=O)NC2CCCCC2)CC1 (stereo not given),IC50,[1],75.6 µM (active)
CCN1CCN(CCCCOc2ccccc2F)CC1,IC50,[1],70.1 µM (active)
O=C1CCCC=C1[C@@H](O)COCc1ccccc1,AC50,Cytochrome P450 3A4,3.16 µM (inconclusive)
CN(Cc1ccco1)c1ncnc2ccc(-c3ccccc3C#N)cc12,AC50,Cytochrome P450 3A4,31.6 µM (inconclusive)
CC(C)NCC#CCOc1ccc(Cl)cc1,IC50,[1],162 µM (active)
Cc1ccc(C)c(NC(=N)Nc2nc(C)cc(C)n2)c1,AC50,Cytochrome P450 2C19,inconclusive
same,EC50,[2],> 60 µM (inconclusive)
same,EC50,[3],1.2 µM (active)
same,AC50,Cytochrome P450 1A2,14.1 µM (inconclusive)
Cc1cc(C)c(S(=O)(=O)N2CCN(c3ccc([N+](=O)[O-])c(NCC4CCCO4)c3)CC2)c(C)c1 (stereo not given),AC50,Cytochrome P450 3A4,3.55 µM (inconclusive)
Cc1cc(/C=C(\C#N)C(=O)N2CCCCC2)cc(C)c1O,IC50,[1],59.4 µM (active)
COc1ccc(Oc2ncc3nc(CCc4ccccc4)c(=O)n(CCC#N)c3n2)cc1,AC50,Cytochrome P450 1A2,6.31 µM (inconclusive)
Cn1c(=O)c(-c2ccccc2)nc2cncnc21,AC50,Cytochrome P450 3A4,12.6 µM (inconclusive)
Cc1noc(C)c1-c1cncnc1NCc1ccccc1,AC50,Cytochrome P450 1A2,25.1 µM (inconclusive)
CNC(=O)[C@@H]1O[C@@H](n2cnc3c(NCc4ccc(N)cc4)ncnc32)[C@@H](O)[C@H]1O,AC50,Cytochrome P450 3A4,25.1 µM (inconclusive)
O=C(c1cccc(F)c1)N1CCC[C@@]2(CCN(c3ccncc3)C2)C1,AC50,Cytochrome P450 2C19; read-out: AC50,2.51 µM (inconclusive)
CC[C@]1(O)C[C@@H]2CN(CCc3c([nH]c4ccccc34)[C@](C(=O)OC)(c3cc4c(cc3OC)N(C=O)[C@H]3[C@@](O)(C(=O)OC)[C@H](C(=O)OC)[C@@]5(CC)C=CCN6CC[C@]43[C@H]65)C2)C1,AC50,Cytochrome P450 3A4,25.1 µM (inconclusive)
Cc1ccsc1-c1nc(-c2ccccc2)c(-c2ccccc2)[nH]1,AC50,Cytochrome P450 2C19; read-out: AC50,10 µM (inconclusive)
Cc1cccc2nc(C(F)(F)F)nc(=O)n12,AC50,Cytochrome P450 2C19; read-out: AC50,28.2 µM (inconclusive)
same,AC50,Cytochrome P450 1A2,0.0316 µM (inconclusive)
O=C(Nc1ccc(Cl)cc1)OCCn1nnnc1C(c1ccccc1Cl)N1CCOCC1 (stereo not given),AC50,Cytochrome P450 3A4,0.891 µM (inconclusive)
COc1ccc(N2CCN(CC(=O)Nc3cccc(S(=O)(=O)N4CCOCC4)c3)CC2)cc1,IC50,[1],77.5 µM (active)
CC(=O)NCCNc1nc(-c2ccccc2C(F)(F)F)nc2ccccc12,AC50,Cytochrome P450 3A4,12.6 µM (inconclusive)
COC(=O)[C@@]1(Cc2ccc(OC)cc2)[C@H]2c3cc(C(=O)N4CCCC4)n(CCc4c[nH]c5ccc(OC)cc45)c3C[C@H]2CN1C(=O)c1ccccc1,AC50,Cytochrome P450 1A2,10 µM (inconclusive)
O=C(CC(c1ccccc1)c1ccccc1)Nc1ccc(O)cc1,IC50,[1],47.2 µM (active)
COc1ccccc1CNc1ncncc1-c1cccc(C#N)c1,AC50,Cytochrome P450 3A4,0.316 µM (inconclusive)
CC[C@](N)(CCC(=O)O)C(=O)O,AC50,Cytochrome P450 1A2,20 µM (inconclusive)
OC(Cc1nc2ccccc2[nH]1)c1ccccc1Cl (stereo not given),AC50,Cytochrome P450 1A2,25.1 µM (inconclusive)
CN1C[C@@H](CS(=O)(=O)N(C)C)C[C@H]2c3cccc4c3c(cn4C)C[C@@H]21,AC50,Cytochrome P450 1A2,25.1 µM (inconclusive)
COc1ccc(NC(=O)N2CC3(CCN(C(=O)c4ccc(OC)cc4)CC3)C2)cc1,AC50,Cytochrome P450 3A4,25.1 µM (inconclusive)
Cc1c(NC(=O)NC(C)N2C(=O)C3C4C=CC(C4)C3C2=O)c(=O)n(-c2ccccc2)n1C (stereo not given),AC50,Cytochrome P450 3A4,25.1 µM (inconclusive)
O=C(c1cccc(F)c1)N1CCC2(CCCN(c3ccc(-c4ccccc4)cc3)C2)CC1,AC50,Cytochrome P450 2C19; read-out: AC50,20 µM (inconclusive)
same,AC50,Cytochrome P450 3A4,12.6 µM (inconclusive)
CCOc1cc(/C=C2/NC(=O)N(Cc3ccccc3F)C2=O)ccc1O,IC50,[1],44.5 µM (active)
CC(=O)c1cc(CC=C(C)C)c(O)cc1O,AC50,Cytochrome P450 3A4,1.41 µM (inconclusive)
COc1cc(/C=C/C(=O)N[C@@H](Cc2c[nH]c3ccccc23)C(=O)O)ccc1O,IC50,[1],80 µM (active)
Cc1cc(C)c(C)c(OCCNCc2ccccc2)c1,IC50,[1],105 µM (active)
CC(C)(C)c1nc(SCC(=O)Nc2ccc3c(c2)OCCO3)c2ccccc2n1,AC50,Cytochrome P450 1A2,10 µM (inconclusive)
O=C1Nc2ccccc2C2=N[C@@H](CN3CCN(c4ccccc4)CC3)CN12,AC50,Cytochrome P450 1A2,20 µM (inconclusive)
COc1ccc(NCc2cccnc2)cc1,IC50,[1],53.1 µM (active)
CCC(CC)N1CCN(C(=O)c2cccc(Cl)c2)CC1,IC50,[1],193 µM (active)
Nc1c2c(=O)oc(-c3ccccc3)cc2nn1-c1ccccc1,AC50,Cytochrome P450 3A4,25.1 µM (inconclusive)
CCOc1ccc(OCCOCCN2CCCC2)cc1,IC50,[1],109 µM (active)
COc1ccc(OC)c(CNC(=O)CCNC(=O)Cn2ccc3ccccc3c2=O)c1,AC50,Cytochrome P450 2C19; read-out: AC50,31.6 µM (inconclusive)
Cc1nc2cnc(Oc3cccc(Cl)c3)nc2n(C2CC2)c1=O,AC50,Cytochrome P450 2C19; read-out: AC50,31.6 µM (inconclusive)
O=C(O)CN1C(=O)CN=C(c2ccccn2)c2cc(Cl)ccc21,AC50,Cytochrome P450 1A2,1.26 µM (inconclusive)
C=CCc1cc(Cl)ccc1OCCNCCN1CCOCC1,EC50,[2],> 60 µM (not active)
same,IC50,[1],90.8 µM (active)
same,EC50,[3],0.136 µM (active)
O=C1[C@H]2[C@H]3[C@H](O)[C@H](O)C/C(=N/OC[C@@H](O)COCc4ccco4)[C@@H]3CC[C@@H]2C(=O)N1C1CCCCC1,AC50,Cytochrome P450 3A4,5.01 µM (inconclusive)
CC1(C)C2([N+](=O)[O-])CN3CC1([N+](=O)[O-])CN(C2)C3c1ccccc1 (stereo not given),AC50,Cytochrome P450 2C19; read-out: AC50,0.355 µM (inconclusive)
C[N+](C)(C)c1ncnc2c1ncn2[C@@H]1CCCCO1,AC50,Cytochrome P450 2C19,inconclusive
CSc1nc(C)c2c(n1)N(c1ccc(O)cc1)CC2,IC50,[1],16.8 µM (active)
CCN(CC)c1ccc(NC(=O)CN2C(=O)NC3(CCc4ccccc43)C2=O)cc1 (stereo not given),IC50,[1],89.8 µM (active)
COc1ncc2ncc(=O)n(CCC#N)c2n1,AC50,Cytochrome P450 1A2,20 µM (inconclusive)
Cc1cc(C(=O)Nc2c(C)n(C)n(-c3ccccc3)c2=O)c2ccccc2n1,AC50,Cytochrome P450 2C19,inconclusive
COc1cc(/C=C/C(=O)OCC(=O)NCCCc2ccccc2)ccc1O,IC50,[1],41.5 µM (active)
O=C(Cc1coc2cc(O)ccc12)NNC(=O)c1ccc(Br)s1,IC50,[1],31.8 µM (active)
O=C(CCc1ccc(O)c(O)c1)N/N=C/c1ccc2c(c1)OCO2,IC50,[1],91.7 µM (active)
COc1ccccc1N1CCN(/N=C/c2cc(OC)c(O)c(OC)c2)CC1,IC50,[1],252 µM (active)
CCc1cc(/C(Cc2cscn2)=N\O)c(O)cc1O,IC50,[1],52 µM (active)
COc1cc(/C=N/NC(=O)CCN2CCN(C(c3ccccc3)c3ccccc3)CC2)ccc1O,IC50,[1],50.9 µM (active)
S=C=Nc1cccc(C2(N3CCCCC3)CCCCC2)c1,AC50,Cytochrome P450 1A2,31.6 µM (inconclusive)
O=c1oc2ccccc2c(O)c1Cc1c(O)c2ccccc2oc1=O [DICUMAROL],AC50,Cytochrome P450 2C19; read-out: AC50,10 µM (inconclusive)
same,AC50,Cytochrome P450 1A2,12.6 µM (inconclusive)
CCCc1cc(=O)[nH]c(=S)[nH]1 [PROPYLTHIOURACIL],AC50,Cytochrome P450 2C19,inconclusive
CSC(=N)NCCC[C@@H](N)C(=O)O [S-METHYL-D-THIOCITRULLINE],AC50,Cytochrome P450 2C19,inconclusive
